Assay results from ChEMBL document CHEMBL1201862, “PubChem BioAssay data set” (2004).
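The compound was tested at five concentrations on cells cultured in 96-well plates, with a 48-hour exposure period. GI50: concentration for 50% inhibition of growth.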 Active and inactive are the calls of the source. No stated cut-off is given here; in the data, active = GI50 up to about 1.1 µM and inactive = higher.

Experiments:
Assay in all cases: DTP human tumour cell line panel, 48 h
SK-MEL-28 = tested on: SK-MEL-28
SR = tested on: SR
MDA-MB-435 = tested on: MDA-MB-435
HOP-62 = tested on: HOP-62
UACC-257 = tested on: UACC-257
786-0 = tested on: 786-0
SF-268 = tested on: SF-268
DU-145 = tested on: DU-145
EKVX = tested on: EKVX
RPMI-8226 = tested on: RPMI-8226
MDA-MB-231 = tested on: MDA-MB-231
BT-549 = tested on: BT-549
OVCAR-4 = tested on: OVCAR-4
CCRF-CEM = tested on: CCRF-CEM
NCI-H23 = tested on: NCI-H23
Malme-3M = tested on: Malme-3M
MOLT-4 = tested on: MOLT-4
UO-31 = tested on: UO-31
SK-OV-3 = tested on: SK-OV-3
HCC 2998 = tested on: HCC 2998

Measured: GI50

OC1(c2ccc(Cl)cc2)c2c(c3ccccc3c3ccccc23)C2=NCCN21 (stereo not given)
inactive: SK-MEL-28 18.3 µM | SR 4.42 µM | MDA-MB-435 29.7 µM | HOP-62 11.3 µM | UACC-257 20.4 µM | 786-0 4.02 µM | SF-268 10.6 µM | DU-145 17.4 µM | EKVX 13.6 µM | RPMI-8226 34.4 µM | MDA-MB-231 12 µM | BT-549 16.5 µM | OVCAR-4 3.43 µM | CCRF-CEM > 100 µM | NCI-H23 11.6 µM | Malme-3M 16.5 µM | MOLT-4 10.8 µM | UO-31 10.7 µM | SK-OV-3 16.4 µM | HCC 2998 1.98 µM

Cn1c2ccccc2n2c3ccccc3c(=O)c(C#N)c12
inactive: SK-MEL-28 > 83.4 µM | SR 2.84 µM | MDA-MB-435 71.8 µM | HOP-62 19.2 µM | UACC-257 55.6 µM | 786-0 6.01 µM | SF-268 10.4 µM | DU-145 12.6 µM | EKVX 18.7 µM | RPMI-8226 3.44 µM | MDA-MB-231 13.9 µM | BT-549 43.2 µM | OVCAR-4 > 100 µM | CCRF-CEM 8.38 µM | NCI-H23 8.24 µM | Malme-3M 4.27 µM | MOLT-4 2.96 µM | UO-31 4.14 µM | SK-OV-3 27.3 µM | HCC 2998 6.56 µM

CSc1ccc2c(cc1=O)[C@@H](NC(C)=O)CCc1cc(O)c(O)c(O)c1-2
inactive: SK-MEL-28 > 100 µM | SR 7.8 µM | MDA-MB-435 10.4 µM | HOP-62 18 µM | UACC-257 37.2 µM | 786-0 13.8 µM | SF-268 16.3 µM | DU-145 > 100 µM | EKVX 31.9 µM | RPMI-8226 12.9 µM | MDA-MB-231 23.9 µM | BT-549 29.6 µM | OVCAR-4 17.6 µM | CCRF-CEM 4.98 µM | NCI-H23 20.5 µM | Malme-3M 57 µM | MOLT-4 13.2 µM | UO-31 21.6 µM | SK-OV-3 > 100 µM | HCC 2998 23 µM
